{
  "source": "patent US20250090820A1",
  "about": "“LOCALIZED DRUG DELIVERY TO PREVENT VASCULAR RESTENOSIS” (Ohio State Innovation Foundation, priority 2022, published 2025)",
  "experiment": "Release of model compounds from sintered electrospun PCL fiber capsules",
  "assay_type": "physicochemical",
  "details": "for ranking of release of model compounds: controlled by molecular weight and available porosity",
  "from_the_text": "Electrospinning has been used widely for drug delivery due to its versatility and ease of modification of fiber properties. However, total drug loading and release is typically limited by the inherent surface area. Instead a sintering of electrospun fiber to create injectable capsules favoring controlled delivery of low molecular weight compounds was used. As electrospun, the fully resorbable, biocompatible polymer polycaprolactone (PCL) retains its morphology out to 1,042 days of in vitro exposure, illustrating its potential for extended performance. Sintering decreases the pore size by 10- and 28-fold following 56 and 57° C. exposures, respectively. After the 58 and 59° C. exposures, these PCL capsules lose all apparent surface porosity but entrapped pores are observed in the 58° C. cross-section. […] The model drug adsorption on the available surface area (57 versus 56° C.) and entrapped porosity (59 versus 58° C.) could have also attributed to the observed ranking of release rates.\nFIGS. 5A-5H show images of microstructural transformations at different temperatures (56° C. to 59° C.). […] Little difference between 56° C. and 57° C. sintering and unsintered fiber˜100% release. […] At 58° C. and 59° C. release is flipped: faster release at lower porosity. RhB is a relatively small molecule. Intermittent adsorption to surface of remaining porosity greatly slows release. […] No condition achieves˜100% release out to 12 days. […] At 58° C. and 59° C. release are still flipped but not as dramatic: faster release at lower porosity. Intermittent adsorption to surface of remaining porosity continues to slow release but increased molecular weight decreases net differences in diffusion. […] Much larger molecule needs fully open porosity for any release to occur. […] Diffusion through dense PCL is zero. […] FIGS. 11A-11B show relatively little porosity remains. This makes a substantial difference in diffusion and surface controlled release. Sequestration within the wall. FIGS. 12A-12D and 13A-13F show controlled salt confinement for controlled porosity using HEPES salt. […] Extraction was performed using deionized water at 37° C. for 24 hours plus gentle shaking. In most cases extraction was nearly complete. It is likely that Na^+ was retained and has measurable effects on mechanical properties.",
  "data": [
    {"molecule": "O=C1OC2(c3cc(I)c(O)c(I)c3Oc3c2cc(I)c(O)c3I)c2c(Cl)c(Cl)c(Cl)c(Cl)c21", "note": "[RB, Rose Bengal]", "values": [
      {"measurement": "percent RB release of 200 μg", "setting": "any sintering condition, out to 12 days", "value": "< 100", "unit": "%"},
      {"measurement": "RB release profile", "setting": "capsules sintered at 58° C. and 59° C.", "value": "linear release out to 12 days"},
      {"measurement": "ranking of release of model compounds", "value": "RhB>RB>>BSA-FITC"}
    ]},
    {"molecule": "CCN(CC)c1ccc2c(-c3ccccc3C(=O)O)c3ccc(=[N+](CC)CC)cc-3oc2c1.[Cl-]", "note": "[RhB, Rhodamine B]", "values": [
      {"measurement": "percent RhB release of 200 μg", "setting": "56° C. and 57° C. sintering and unsintered fiber", "value": "~100", "unit": "%"},
      {"measurement": "RhB release profile", "setting": "capsules sintered at 58° C.", "value": "linear release out to 12 days"},
      {"measurement": "ranking of release of model compounds", "value": "RhB>RB>>BSA-FITC"}
    ]},
    {"molecule": "albumin-fluorescein isothiocyanate conjugate from bovine serum [BSA-FITC]", "values": [
      {"measurement": "ranking of release of model compounds", "value": "RhB>RB>>BSA-FITC"},
      {"measurement": "Diffusion through dense PCL", "setting": "dense PCL wall", "value": "zero"},
      {"measurement": "BSA-FITC release profile", "setting": "release of 200 μg versus time, needs fully open porosity", "value": "Release plateaus quickly"}
    ]}
  ]
}
